Legend:
barnyardgrass [1] = experiment: Test C preemergence; type: in vivo, Echinochloa crusgalli; conditions: Preemergence, 1000 g ai/ha; visual rating after 10 days, 0 to 100 scale (0 no effect, 100 complete control)
Outline: (§1)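 Pre: seeds in loam/sand, directed soil spray. Post: 1–2 leaf plants, 2–10 cm. Cmpd in non-phytotoxic solvent + surfactant. Greenhouse 10 d; visual rating vs untreated, 0 = none, 100 = complete control.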

blackgrass [2] = experiment: Test C preemergence; type: in vivo, Alopecurus myosuroides; conditions: Preemergence, 1000 g ai/ha; visual rating after 10 days, 0 to 100 scale (0 no effect, 100 complete control)
Outline: as §1

green foxtail [3] = experiment: Test C preemergence; type: in vivo, Setaria viridis; conditions: Preemergence, 1000 g ai/ha; visual rating after 10 days, 0 to 100 scale (0 no effect, 100 complete control)
Outline: as §1

kochia [4] = experiment: Test C preemergence; type: in vivo, Bassia scoparia; conditions: Preemergence, 1000 g ai/ha; visual rating after 10 days, 0 to 100 scale (0 no effect, 100 complete control)
Outline: as §1

pigweed, palmer [5] = experiment: Test C preemergence; type: in vivo, Amaranthus palmeri; conditions: Preemergence, 1000 g ai/ha; visual rating after 10 days, 0 to 100 scale (0 no effect, 100 complete control)
Outline: as §1

ragweed [6] = experiment: Test C preemergence; type: in vivo, Ambrosia artemisiifolia; conditions: Preemergence, 1000 g ai/ha; visual rating after 10 days, 0 to 100 scale (0 no effect, 100 complete control)
Outline: as §1

ryegrass, Italian [7] = experiment: Test C preemergence; type: in vivo, Lolium multiflorum; conditions: Preemergence, 1000 g ai/ha; visual rating after 10 days, 0 to 100 scale (0 no effect, 100 complete control)
Outline: as §1

barnyardgrass [8] = experiment: Test C postemergence; type: in vivo, Echinochloa crusgalli; conditions: Postemergence, 1000 g ai/ha
Outline: as §1

blackgrass [9] = experiment: Test C postemergence; type: in vivo, Alopecurus myosuroides; conditions: Postemergence, 1000 g ai/ha, 10 days, visual 0 to 100 scale (0 no effect, 100 complete control)
Outline: as §1

green foxtail [10] = experiment: Test C postemergence; type: in vivo, Setaria viridis; conditions: Postemergence, 1000 g ai/ha, 10 days, visual 0 to 100 scale (0 no effect, 100 complete control)
Outline: as §1

kochia [11] = experiment: Test C postemergence; type: in vivo, Bassia scoparia; conditions: Postemergence, 1000 g ai/ha, 10 days, visual 0 to 100 scale (0 no effect, 100 complete control)
Outline: as §1

pigweed, palmer [12] = experiment: Test C postemergence; type: in vivo, Amaranthus palmeri; conditions: Postemergence, 1000 g ai/ha, 10 days, visual 0 to 100 scale (0 no effect, 100 complete control)
Outline: as §1

ragweed [13] = experiment: Test C postemergence; type: in vivo, Ambrosia artemisiifolia; conditions: Postemergence, 1000 g ai/ha, 10 days, visual 0 to 100 scale (0 no effect, 100 complete control)
Outline: as §1

ryegrass, Italian [14] = experiment: Test C postemergence; type: in vivo, Lolium multiflorum; conditions: Postemergence, 1000 g ai/ha, 10 days, visual 0 to 100 scale (0 no effect, 100 complete control)
Outline: as §1

galium = experiment: Test C postemergence; type: in vivo, Galium aparine; conditions: Postemergence, 1000 g ai/ha, 10 days, visual 0 to 100 scale (0 no effect, 100 complete control)
Outline: as §1

horseweed = experiment: Test C postemergence; type: in vivo, Erigeron canadensis; conditions: Postemergence, 1000 g ai/ha, 10 days, visual 0 to 100 scale (0 no effect, 100 complete control)
Outline: as §1

barnyardgrass [15] = experiment: Test D flooded paddy test; type: in vivo, Echinochloa crus-galli; conditions: 250 g ai/ha, applied to paddy water, visual rating after 13 to 14 days, scale 0 to 100 (0 no effect, 100 complete control)
Outline: (§2)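 Rating scale 0–100 (0 no effect, 100 complete control), visual, versus controls. Readout at 13–14 days after in-water application to 2-leaf plants in pots flooded 3 cm deep.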

ducksalad = experiment: Test D flooded paddy test; type: in vivo, Heteranthera limosa; conditions: 250 g ai/ha, applied to paddy water, visual rating after 13 to 14 days, scale 0 to 100 (0 no effect, 100 complete control)
Outline: as §2

rice = experiment: Test D flooded paddy test; type: in vivo, Oryza sativa; conditions: 250 g ai/ha, applied to paddy water, visual rating after 13 to 14 days, scale 0 to 100 (0 no effect, 100 complete control)
Outline: as §2

sedge, umbrella = experiment: Test D flooded paddy test; type: in vivo, Cyperus difformis; conditions: 250 g ai/ha, applied to paddy water, visual rating after 13 to 14 days, scale 0 to 100 (0 no effect, 100 complete control)
Outline: as §2

| Structure (SMILES) | Plant response rating, Barnyardgrass (barnyardgrass [1]) | Plant response rating, Blackgrass (blackgrass [2]) | Plant response rating, Foxtail, Green (green foxtail [3]) | Plant response rating, Kochia (kochia [4]) | Plant response rating, Pigweed, Palmer (pigweed, palmer [5]) | Plant response rating, Ragweed (ragweed [6]) | Plant response rating, Ryegrass, Italian (ryegrass, Italian [7]) | Plant response rating, Blackgrass (blackgrass [9]) | Plant response rating, Foxtail, Green (green foxtail [10]) | Plant response rating, Kochia (kochia [11]) | Plant response rating, Pigweed, Palmer (pigweed, palmer [12]) | Plant response rating, Ragweed (ragweed [13]) | Plant response rating, Ryegrass, Italian (ryegrass, Italian [14]) | Plant response rating, Galium (galium) | Plant response rating, Horseweed (horseweed) | Plant response rating, Barnyardgrass (Flood) (barnyardgrass [15]) | Plant response rating, Ducksalad (Flood) (ducksalad) | Plant response rating, Rice (Flood) (rice) | Plant response rating, Sedge, Umbrella (Flood) (sedge, umbrella) | further results |
| --- | --- | --- | --- | --- | --- | --- | --- | --- | --- | --- | --- | --- | --- | --- | --- | --- | --- | --- | --- | --- |
| Cc1ncc(-c2cccc(C(=O)N3C[C@H](C)Oc4c(Cl)cccc43)c2)s1 [Compound 296] | 100 | 50 | 100 | 90 | 100 | 70 | 80 | 80 | 80 | 90 | 90 | 80 | 30 | 100 | 60 | 0 | 0 | 0 | 0 | Plant response rating, Barnyardgrass (barnyardgrass [8]; 10 days, visual 0 to 100 scale (0 no effect, 100 complete control)): 50 |
| Cc1nccc(-c2cccc(C(=O)N3C[C@H](C)Oc4c(C)cccc43)c2)n1 [Compound 250] | 90 | 30 | 100 | 80 | 80 | 0 | 90 | 20 | 80 | 70 | 50 | 50 | 40 | 50 | 0 | 0 | 0 | 0 | 0 | Plant response rating, Barnyardgrass (barnyardgrass [8]; 0 to 100 scale, 0 no effect, 100 complete control): 50 |

Source: patent US20260262643A1, “HERBICIDAL BENZOXAZINES” (FMC CORPORATION, priority 2022, published 2026)
